Test results: patent publication US20090036422A1 (priority 2007, published 2009)
Counter-ions that a name gives are not always drawn.

Assays:
rat = details: intracerebroventricular (icv) administration; cited from earlier work
[1] = target: T1, human orexin-2 (hOX2) receptor (Homo sapiens, UniProt O43614); experiment: Intracellular Ca2+ mobilization assay (FLIPR), CHO(dHFr-) cells expressing hOX2, orexin-A at EC80 as agonist; type: cell-based; details: Kb=IC50/(1+[A]/EC50); CHO(dHFr-)-OX2R cells, antagonist applied 25 min before orexin-A EC80
T1 construct: expressed in transfected cells
T1 sequence (O43614 1-444): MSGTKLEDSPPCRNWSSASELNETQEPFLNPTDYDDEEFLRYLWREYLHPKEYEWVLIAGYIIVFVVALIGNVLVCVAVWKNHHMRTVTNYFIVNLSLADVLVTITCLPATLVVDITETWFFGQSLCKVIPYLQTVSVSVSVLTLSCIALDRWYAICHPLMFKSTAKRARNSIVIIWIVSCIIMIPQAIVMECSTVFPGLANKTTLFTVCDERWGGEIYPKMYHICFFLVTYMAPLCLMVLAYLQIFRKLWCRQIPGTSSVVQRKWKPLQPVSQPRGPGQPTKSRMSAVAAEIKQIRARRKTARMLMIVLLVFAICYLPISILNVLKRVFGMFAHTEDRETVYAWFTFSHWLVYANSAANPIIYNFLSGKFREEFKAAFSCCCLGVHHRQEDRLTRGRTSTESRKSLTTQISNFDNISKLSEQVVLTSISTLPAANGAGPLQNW
Procedure, shortened: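 Fluo-4-loaded CHO(dHFr−) cells stably expressing hOX2 were preincubated 25 min at 37 °C with antagonist (11 concentrations, 0.0001–10 μM), then challenged with orexin-A at its daily-determined EC80. Peak fluorescence over basal read by FLIPR; IC50 from Hill fit, Kb via Kb=IC50/(1+[A]/EC50).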

OX-A: "orexin-A/hypocretin1 (OX-A, 33 amino acids)", hypothalamic neuropeptide; "Orexin A ... was used as agonist" (QPLPDCCRQKTCSCRLYELLHGAGNHAAGILTL; Orexin-A; UniProt O43612 34-66, looked up)
reduction of total REM sleep (rat): 84%

Cc1ccc(N(CCc2cccc(C(F)(F)F)c2F)C(=O)[C@@H](N)c2ccccc2)cc1C [Example 195, (S)-2-Amino-N-(3,4-dimethyl-phenyl)-N-[2-(2-fluoro-3-trifluoromethyl-phenyl)-ethyl]-2-phenyl-acetamide hydrochloride]
Kb [1]: 0.0176 µM

COc1ccc(C)c(N(CCc2ccc(C(F)(F)F)cc2)C(=O)C(N)c2ccccc2)c1 (centres unmarked) [Example 59, 2-Amino-N-(5-methoxy-2-methyl-phenyl)-2-phenyl-N-[2-(4-trifluoromethyl-phenyl)-ethyl]-acetamide]
Kb [1]: 0.0143 µM

Cc1ccc(N(CCc2ccc(C(F)(F)F)cc2)C(=O)[C@@H](N)c2ccccc2)cc1C [Example 138, (S)-2-Amino-N-(3,4-dimethyl-phenyl)-2-phenyl-N-[2-(4-trifluoromethyl-phenyl)-ethyl]-acetamide]
Kb [1]: 0.0364 µM

Cc1ccc(N(CCc2c(F)cc(C(F)(F)F)c(F)c2F)C(=O)[C@@H](N)c2ccccc2)cc1C [Example 202, (S)-2-Amino-N-(3,4-dimethyl-phenyl)-2-phenyl-N-[2-(2,3,6-trifluoro-4-trifluoromethyl-phenyl)-ethyl]-acetamide hydrochloride]
Kb [1]: 0.0015 µM

COc1ccc(N(CCc2ccc(C(F)(F)F)cc2)C(=O)C(N)c2ccccc2)cc1F (centres unmarked) [Example 64, 2-Amino-N-(3-fluoro-4-methoxy-phenyl)-2-phenyl-N-[2-(4-trifluoromethyl-phenyl)-ethyl]-acetamide]
Kb [1]: 0.0383 µM

COc1cc(N(CCc2ccc(C(F)(F)F)cc2)C(=O)C(N)c2ccccc2)ccc1Cl (centres unmarked) [Example 65, 2-Amino-N-(4-chloro-3-methoxy-phenyl)-2-phenyl-N-[2-(4-trifluoromethyl-phenyl)-ethyl]-acetamide]
Kb [1]: 0.0285 µM

COc1ccc(N(CCc2ccc(C(F)(F)F)cc2)C(=O)C(N)c2ccc(Cl)cc2)cc1OC (centres unmarked) [Example 62]
Kb [1]: 0.0751 µM
